In EP1005865A1, “A anti-allergy anti-inflammatory composition comprising nimesulide and cetirizine” (priority 1998, dated 2000):
Counter-ions that a name gives are not always drawn.

Experiments:
[1] = system: chronic hives patients; conditions: daily regimen of 10mg of cetirizine; cited from earlier work
[2] = system: Histamine induced bronchoconstrictor in guinea pigs; assay: Histamine-induced bronchospasm in anaesthetised, ventilated guinea pig (insufflation pressure); conditions: for Histamine Challenge (% Insufflation pressure) 5 µg/kg: histamine 5 µg/kg iv, control 187.42 ± 22.49; for Histamine Challenge (% Insufflation pressure) 10 µg/kg: histamine 10 µg/kg iv, control 239.07 ± 43.64
[3] = system: Leukotriene D4 (LTD4) induced bronchoconstrictor in guinea pigs; assay: Leukotriene D4-induced bronchospasm in guinea pig (insufflation pressure); conditions: for % Insufflation pressure after LTD4 1 µg/kg LTD4: control 186.02 ± 52.58; for % Insufflation pressure after LTD4 2 µg/kg LTD4: control 246.56 ± 14.33; for decrease in % insufflation pressure, LTD4-induced bronchoconstriction: matches the 1 µg/kg LTD4 column of Table 3
[4] = system: Antigen (egg albumin) induced bronchoconstrictor in guinea pigs; assay: Egg albumin (antigen)-induced bronchospasm in sensitized guinea pig (insufflation pressure)
Description: The animals were stabilized for 10 minutes.
Cetirizine was dissolved in deionized water. […] Histamine and d-tubocurarine chloride were dissolved in saline and Leukotriene D4 was diluted with Methanol and Ammonium Acetate buffer in a ratio of 70 : 30 at a pH of 5.4.
Guinea pigs were sensitized by injections of 100 mg of Egg albumin ip and 100 mg Egg albumin sc in saline. Guinea pigs were used after day 21st.

[5] = system: PDE IV; conditions: PDE IV inhibitor in vitro, reported; cited from earlier work
[6] = cited from earlier work
[7] = Cetrizine 1.16 mg/kg p.o 2 hours before challenge
[8] = Cetrizine 1.16 mg/kg p.o 2 hours before challenge, n 1
[9] = Nimesulide 11.66 mg/kg p.o 2 hours before challenge
[10] = Nimesulide 23.32 mg/kg p.o 2 hours before challenge

## O=C(O)COCCN1CCN(C(c2ccccc2)c2ccc(Cl)cc2)CC1 (centres unmarked) [Cetrizine, Cetirizine dihydrochloride]
[1]
  chronic hives patients reporting excellent results: ~70%
[2]; Cetirizine 1.16 mg/kg p.o, matches the 5 µg/kg histamine column of Table 1
  decrease in % insufflation pressure, histamine induced bronchoconstriction: 62.71%
[2]; [7]
  Histamine Challenge (% Insufflation pressure) 5 µg/kg: 37.29 ± 6.76 %
  Histamine Challenge (% Insufflation pressure) 10 µg/kg: 68.35 ± 18.20 %
[2]; histamine 5 and 10 µg/kg, Cetirizine 1.66 mg/kg (so in the source)
  effect on histamine induced increase in insufflation pressure: significantly reduced
[3]; [8]
  % Insufflation pressure after LTD4 1 µg/kg LTD4: 57.14%
  % Insufflation pressure after LTD4 2 µg/kg LTD4: 92.85%
[3]; Cetirizine 1.16 mg/kg
  effect on LTD4-induced contractions: significantly blocked
[3]; Cetirizine 1.16 mg/kg p.o
  decrease in % insufflation pressure, LTD4-induced bronchoconstriction: 42.86%

## CS(=O)(=O)Nc1ccc([N+](=O)[O-])cc1Oc1ccccc1 [Nimesulide]
[4]; Nimesulide 11.66 mg/kg p.o, matches the 1 mg/kg egg albumin column of Table 2
  decrease in % insufflation pressure, egg albumin induced bronchoconstriction: 90.24%
[4]; egg albumin 1 mg/kg, 2 mg/kg, Nimesulide 11.66 mg/kg
  effect on egg albumin induced insufflation pressure: significantly reduced
[4]; sensitized guinea pigs, egg albumin 1 mg/kg, Nimesulide 11.66 mg/kg p.o, control 111.88 ± 10.53
  % Insufflation pressure after egg albumin challange 1 mg/kg: 9.76 ± 4.17 %
[4]; sensitized guinea pigs, egg albumin 2 mg/kg, Nimesulide 11.66 mg/kg p.o, control 196.90 ± 32.98
  % Insufflation pressure after egg albumin challange 2 mg/kg: 19.39 ± 4.32 %
[2]; Nimesulide single dose, S, 11.66 mg/kg and double dose, D, 23.32 mg/kg
  effect on histamine induced increase in insufflation pressure: no significant inhibitory effect
[2]; Nimesulide, dose not given
  antihistaminic effect, histamine induced bronchoconstriction: no antihistaminic effect
[2]; [9]
  Histamine Challenge (% Insufflation pressure) 5 µg/kg: 171.07 ± 23.76%
  Histamine Challenge (% Insufflation pressure) 10 µg/kg: 236.47 ± 40.40%
[2]; [10]
  Histamine Challenge (% Insufflation pressure) 5 µg/kg: 163.15 ± 43.27%
  Histamine Challenge (% Insufflation pressure) 10 µg/kg: 205.10 ± 31.33%
[5]
  IC50: ~40 µM
[3]; [9]
  % Insufflation pressure after LTD4 1 µg/kg LTD4: 192.45 ± 45.53%
  % Insufflation pressure after LTD4 2 µg/kg LTD4: 197.02 ± 37.76%
[3]; [10]
  % Insufflation pressure after LTD4 1 µg/kg LTD4: 38.99 ± 19.79 %
  % Insufflation pressure after LTD4 2 µg/kg LTD4: 140.07 ± 61.15 %
[3]; Nimesulide 11.66 mg/kg
  effect on insufflation pressure, LTD4-induced contractions: no effect
[3]; Nimesulide 23.32 mg/kg p.o
  decrease in % insufflation pressure, LTD4-induced bronchoconstriction: 61.0%
[3]; double dose Nimesulide 23.32 mg/kg
  effect on LTD4-induced contractions: potent inhibitory effect

## O=C(O)c1cc(=O)c2c(OCC(O)COc3cccc4oc(C(=O)O)cc(=O)c34)cccc2o1 [cromolyn sodium]
[6]; inhaled, taken 4 times daily
  half-life: 45 to 100 min
[6]; oral dose
  fraction of an oral dose absorbed: about 1%
